In US8440694B2, “Quinoline compounds suitable for treating disorders that respond to modulation of the serotonin-5-HT6 receptor” (Abbott GmbH & Co. KG, priority 2007, dated 2013):
Counter-ions that a name gives are not always drawn.

What follows are molecules tested against T1, h-5-HT6 receptor (Homo sapiens, UniProt P50406) (assay: 5-HT6 receptor binding assay (displacement of [3H]-LSD)). Conditions: membranes of HEK293 cells stably expressing h-5-HT6 receptor, [3H]-LSD displacement.
T1 construct: expressed in transfected cells
T1 sequence (P50406 whole entry): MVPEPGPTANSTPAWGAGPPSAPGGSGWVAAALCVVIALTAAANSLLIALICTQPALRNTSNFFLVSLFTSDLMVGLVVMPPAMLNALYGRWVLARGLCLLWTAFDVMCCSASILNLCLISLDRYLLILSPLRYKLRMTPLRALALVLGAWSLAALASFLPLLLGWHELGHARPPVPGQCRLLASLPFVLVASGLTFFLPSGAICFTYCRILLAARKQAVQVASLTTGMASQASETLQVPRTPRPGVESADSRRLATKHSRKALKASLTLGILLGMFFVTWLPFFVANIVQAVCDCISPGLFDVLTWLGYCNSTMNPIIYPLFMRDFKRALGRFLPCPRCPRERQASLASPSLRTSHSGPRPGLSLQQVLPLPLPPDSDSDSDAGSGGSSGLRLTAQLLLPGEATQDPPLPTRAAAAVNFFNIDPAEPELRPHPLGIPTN
Procedure: Displacement of Radioligands Binding to the Following Cloned Human Receptors
Cells from stable clonal cell lines expressing the corresponding receptor (5-HT6, α1-adrenergic, dopamine D2 or histamine H1 receptors) were washed with PBS (w/o Ca^++, Mg^++) and harvested in PBS with 0.02% EDTA. The cells were collected by centrifugation at 500 g for 10 min. at 4° C., washed with PBS and centrifuged (500 g, 10 min. 4° C.). The pellets were stored at −80° C. until use. For membrane preparation, the thawed cell pellet was resuspended in ice-cold sucrose buffer (0.25 M sucrose, 10 mM Hepes (pH 7.4), 1 mM Phenylmethylsulfonyl fluoride (PMSF) in DMSO, 5 μg/ml Pepstatin-A, 3 mM EDTA, 0.025% Bacitracin) and homogenized with a Branson Sonifier W-250 (Settings: Timer 4; Output Control 3; Duty Cycle constant; 2 to 3 cycles). Cell disruption was checked with the aid of a microscope. Remaining unbroken cells were pelleted at 1.000 g for 10 min. at 4° C. The sucrose buffer supernatant was then centrifuged at 60.000 g for 1 h at 4° C. (Beckman Ultrazentrifuge XL 80). The pellet was resuspended in 30 ml ice-cold Tris buffer (20 mM TRIS (pH 7.4), 5 μg/ml Pepstatin A, 0.1 mM PMSF, 3 mM EDTA) by pipetting through a 10 ml serological pipet and centrifuged for 1 h at 4° C. at 60.000 g. A final resuspension was performed in a small volume of ice-cold Tris buffer (see above) by pressing through a serological pipet followed by ultrasonic treatment with a Branson Sonifier W-250 (Settings: Timer 1; Output Control 3; Duty Cycle constant; 1 cycle). Protein concentration was determined (BCA-Kit; Pierce) and aliquots stored at −80° C. or in liquid nitrogen for long-term storage.
All receptor binding experiments were carried out in the corresponding assay buffer in a total volume of 200 μl in the presence of various concentrations of test compound (10^−5 M to 10^−9 M, tenfold serial dilution, duplicate determinations). The assays were terminated by filtration on polyethylenimine (PEI 0.1% or 0.3%) presoaked Packard Unifilter Plates (GF/C or GF/B) with a Tomtec MachIII U 96well-plate harvester. After the plates had been dried for 2 h at 55° C. in a drying chamber scintillation cocktail (BetaPlate Scint; PerkinElmer) was added. Radioactivity was measured in a Microbeta Trilux two hours after the addition of the scintillation mixture. Data derived from liquid scintillation counting were analysed by iterative non-linear regression analysis with the use of the Statistical Analysis System (SAS): a program similar to “LIGAND” as described by Munson and Rodbard (Analytical Biochemistry 107, 220-239 (1980).
HEK293 cells stably expressing the h-5-HT6 receptor (NCBI Reference Sequence XM 001435) were cultured in RPMI1640 medium supplemented with 25 mM HEPES, 10% fetal calf serum and 1-2 mM glutamine. The membrane preparation was performed as described in section 1. […] Non-specific binding was defined with 1 μM methiothepin. The binding reaction was carried out for 3.5 h at room temperature. During the incubation, the plates were shaken on a plate shaker at 100 rpm and terminated by filtration on Packard Unifilter GF/C (0.1% PEI) plates, followed by 2 wash cycles with ice-cold 50 mM Tris-HCl, 5 mM CaCl2.
Data derived from liquid scintillation counting were analyzed by iterative non-linear regression analysis with the use of the Statistical Analysis System (SAS): a program similar to “LIGAND” as described by Munson and Rodbard (Anal. Biochem. 1980, 107, 220-239). Fitting was performed according to formulae described by Feldman (Anal. Biochem. 1972, 48, 317-338). IC50, nH and Ki values were expressed as geometrical mean.

Row | SMILES | Ki [nM]
1 | O=S(=O)(c1ccccc1)c1cnc2c(N3CC4CCNC4C3)cccc2c1 (stereo not drawn) [Example 1, 8-(Hexahydropyrrolo[3,4-b]pyrrol-5(1H)-yl)-3-(phenylsulfonyl)quinoline hydrochloride] | < 10
2 | O=C(OCc1ccccc1)N1CC2CN(c3cccc4cc(S(=O)(=O)c5ccccc5)cnc34)C2C1 (stereo not drawn) [Example 2, Benzyl 6-(3-(phenylsulfonyl)quinolin-8-yl)-3,6-diazabicyclo[3.2.0]heptane-3-carboxylate] | < 250
3 | CC(C)(C)OC(=O)N1CCC2CN(c3cccc4cc(S(=O)(=O)c5ccccc5)cnc34)CC2C1 (stereo not drawn) [Example 3, tert-butyl 2-(3-(phenylsulfonyl)quinolin-8-yl)hexahydro-1H-pyrrolo[3,4-c]pyridine-5(6H)-carboxylate] | < 250
4 | O=S(=O)(c1ccccc1)c1cnc2c(N3CC4CCNCC4C3)cccc2c1 (stereo not drawn) [Example 4, 3-(Phenylsulfonyl)-8-(1H-pyrrolo[3,4-c]pyridin-2(3H,3aH,4H,5H,6H,-7H,7aH)-yl)quinoline] | < 10
5 | O=S(=O)(c1ccccc1)c1cnc2c(N3CCCC4NCCCC43)cccc2c1 (stereo not drawn) [Example 10, 1-(3-(phenylsulfonyl)quinolin-8-yl)decahydro-1,5-naphthyridine] | < 250
6 | O=S(=O)(c1ccccc1)c1cnc2c(N3CC[C@H]4CNC[C@H]43)cccc2c1 [Example 12, 8-((3aS,6aS)-hexahydropyrrolo[3,4-b]pyrrol-1(2H)-yl)-3-(phenylsulfonyl)-quinoline] | < 10
7 | O=S(=O)(c1ccc(F)cc1)c1cnc2c(N3CC4CCNCC4C3)cccc2c1 (stereo not drawn) [Example 13, 3-(4-fluorophenylsulfonyl)-8-(1H-pyrrolo[3,4-c]pyridin-2(3H,3aH,4H,5H,6H,7H,7aH)-yl)quinoline] | < 10
8 | O=S(=O)(c1ccc(F)cc1)c1cnc2c(N3CC4CNCC4C3)cccc2c1 (stereo not drawn) [Example 14, 3-(4-fluorophenylsulfonyl)-8-(hexahydropyrrolo[3,4-c]pyrrol-2(1H)-yl)quinoline] | < 10
9 | CC(C)(C)OC(=O)N1CC2CN(c3cccc4cc(S(=O)(=O)c5cccc(OC(F)(F)F)c5)cnc34)CC2C1 (stereo not drawn) [Example 15, tert-butyl 5-(3-(3-(trifluoromethoxy)phenylsulfonyl)quinolin-8-yl)hexahydropyrrolo[3,4-c]pyrrole-2 (1H)-carboxylate] | < 50
10 | O=S(=O)(c1cccc(OC(F)(F)F)c1)c1cnc2c(N3CC4CNCC4C3)cccc2c1 (stereo not drawn) [Example 16, 8-(hexahydropyrrolo[3,4-c]pyrrol-2(1H)-yl)-3-(3-(trifluoromethoxy)-phenylsulfonyl)quinoline] | < 10
11 | O=S(=O)(c1cccc(N2CC3CNCC3C2)c1)c1cnc2c(N3CC4CNCC4C3)cccc2c1 (stereo not drawn) [Example 18, 8-(hexahydropyrrolo[3,4-c]pyrrol-2(1H)-yl)-3-(3-(hexahydropyrrolo[3,4-c]pyrrol-2(1H)-yl)phenylsulfonyl)quinoline] | < 10
12 | CC(C)(C)OC(=O)N1CCC2CN(c3cccc4cc(S(=O)(=O)c5cccc(OC(F)(F)F)c5)cnc34)CC2C1 (stereo not drawn) [Example 19, tert-butyl 2-(3-(3-(trifluoromethoxy)phenylsulfonyl)quinolin-8-yl)hexahydro-1H-pyrrolo[3,4-c]pyridine-5(6H)-carboxylate] | < 50
13 | O=S(=O)(c1cccc(OC(F)(F)F)c1)c1cnc2c(N3CC4CCNCC4C3)cccc2c1 (stereo not drawn) [Example 20, 8-(1H-pyrrolo[3,4-c]pyridin-2(3H,3aH,4H,5H,6H,7H,7aH)-yl)-3-(3-(trifluoromethoxy)phenylsulfonyl)quinoline] | < 10
14 | O=S(=O)(c1cccc(C(F)(F)F)c1)c1cnc2c(N3CC4CCNC4C3)cccc2c1 (stereo not drawn) [Example 22, 8-(hexahydropyrrolo[3,4-b]pyrrol-5(1H)-yl)-3-(3-(trifluoromethyl)-phenylsulfonyl)quinoline] | < 10
15 | O=S(=O)(c1cccc(C(F)(F)F)c1)c1cnc2c(N3C[C@H]4CNC[C@H]4C3)cccc2c1 [Example 24, 8-((3aR,6aS)-hexahydropyrrolo[3,4-c]pyrrol-2(1H)-yl)-3-(3-(trifluoromethyl)phenylsulfonyl)quinoline] | < 10
16 | O=S(=O)(c1cccc(F)c1)c1cnc2c(N3CC[C@H]4CNC[C@H]43)cccc2c1 [Example 26, 3-(3-Fluoro-benzenesulfonyl)-8-(3aS,6aS)-hexahydropyrrolo[3,4-b]pyrrol-1-yl-quinoline hydrochloride] | < 10
17 | O=S(=O)(c1cccc(F)c1)c1cnc2c(N3C[C@H]4CN[C@H]4C3)cccc2c1 [Example 28, 8-(1R,5R)-3,6-Diaza-bicyclo[3.2.0]hept-3-yl-3-(3-fluoro-benzenesulfonyl)-quinoline hydrochloride] | < 10
18 | O=S(=O)(c1cccc(F)c1)c1cnc2c(N3CC4CCNC4C3)cccc2c1 (stereo not drawn) [Example 29, 3-(3-Fluoro-benzenesulfonyl)-8-(hexahydro-pyrrolo[3,4-b]pyrrol-5-yl)-quinoline hydrochloride] | < 10
19 | O=S(=O)(c1cccc(F)c1)c1cnc2c(N3C[C@H]4CNC[C@H]4C3)cccc2c1 [Example 30, 3-(3-Fluoro-benzenesulfonyl)-8-(3aR,6aS)-hexahydro-pyrrolo[3,4-c]pyrrol-2-yl-quinoline hydrochloride] | < 10
20 | O=S(=O)(c1cccc(F)c1)c1cnc2c(N3CC4CCCNC4C3)cccc2c1 (stereo not drawn) [Example 31, 6-(3-(3-fluorophenylsulfonyl)quinolin-8-yl)octahydro-1H-pyrrolo[3,4-b]pyridin-1-ium chloride] | < 10
21 | O=S(=O)(c1cccc(F)c1)c1cnc2c(N3C[C@@H]4CN[C@@H]4C3)cccc2c1 [Example 32, (1S,5S)-3-(3-(3-fluorophenylsulfonyl)quinolin-8-yl)-3-aza-6-azoniabicyclo[3.2.0]heptane hydrochloride] | < 10
22 | O=S(=O)(c1ccc(F)cc1)c1cnc2c(N3CC4CCNC4C3)cccc2c1 (stereo not drawn) [Example 39, 3-(4-fluorophenylsulfonyl)-8-(hexahydropyrrolo[3,4-b]pyrrol-5(1H)-yl)quinoline] | < 10
23 | O=S(=O)(c1ccccc1)c1cnc2c(N3CC4CN(Cc5ccccc5)CC4C3)cccc2c1 (stereo not drawn) [Example 40, 8-(5-benzylhexahydropyrrolo[3,4-c]pyrrol-2(1H)-yl)-3-(phenylsulfonyl)-quinoline] | < 10
24 | CN1CCC2CN(c3cccc4cc(S(=O)(=O)c5ccccc5)cnc34)CC2C1 (stereo not drawn) [Example 41, 8-(5-methyl-1H-pyrrolo[3,4-c]pyridin-2(3H,3aH,4H,5H,6H,7H,7aH)-yl)-3] | < 50
25 | O=S(=O)(c1ccccc1)c1cnc2c(N3CCC4NC5CCCCC5C4C3)cccc2c1 (stereo not drawn) [Example 42, 2-(3-(phenylsulfonyl)quinolin-8-yl)dodecahydro-1H-pyrido[4,3-b]indole] | < 250
26 | O=S(=O)(c1ccccc1)c1cnc2c(N3CC4CNCC4C3)cccc2c1 (stereo not drawn) [Example 43, 8-(hexahydropyrrolo[3,4-c]pyrrol-2(1H)-yl)-3-(phenylsulfonyl)quinoline] | < 10
27 | O=S(=O)(c1cccc(C(F)(F)F)c1)c1cnc2c(N3CC4CCNCC4C3)cccc2c1 (stereo not drawn) [Example 44, 8-(1H-pyrrolo[3,4-c]pyridin-2(3H,3aH,4H,5H,6H,7H,7aH)-yl)-3-(3-(trifluoromethyl)phenylsulfonyl)quinoline] | < 10
